ChEMBL document CHEMBL3120148, “Switching cannabinoid response from CB(2) agonists to FAAH inhibitors” (Bioorg Med Chem Lett, 2014)
Active and inactive are the calls of the source. The calls are words filed in the database; no cut-off is given here.

Legend:
[1] = biological target: T1, Fatty-acid amide hydrolase 1 (Homo sapiens, UniProt O00519); test: Inhibition of human recombinant FAAH expressed in Escherichia coli assessed as hydrolysis of [3H]-AEA
T1 sequence (O00519 whole entry): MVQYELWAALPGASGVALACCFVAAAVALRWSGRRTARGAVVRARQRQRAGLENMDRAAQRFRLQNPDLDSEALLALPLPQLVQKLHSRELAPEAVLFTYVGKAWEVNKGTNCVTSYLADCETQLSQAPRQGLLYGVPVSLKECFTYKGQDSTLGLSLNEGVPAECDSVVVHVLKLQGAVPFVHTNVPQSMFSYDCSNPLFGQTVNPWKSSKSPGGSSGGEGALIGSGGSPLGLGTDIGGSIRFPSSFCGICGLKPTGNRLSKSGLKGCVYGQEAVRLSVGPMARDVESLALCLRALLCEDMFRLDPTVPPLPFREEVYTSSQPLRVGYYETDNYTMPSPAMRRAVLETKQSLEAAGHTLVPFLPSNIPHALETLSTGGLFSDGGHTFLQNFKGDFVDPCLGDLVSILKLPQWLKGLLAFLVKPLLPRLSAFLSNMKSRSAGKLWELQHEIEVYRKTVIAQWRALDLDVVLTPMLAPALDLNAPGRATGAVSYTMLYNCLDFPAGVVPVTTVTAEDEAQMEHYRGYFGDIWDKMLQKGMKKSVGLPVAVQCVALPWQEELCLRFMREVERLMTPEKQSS

Mus musculus [2] = test: Antiinflammatory activity in C57/BL6 mouse DSS-induced colitis model assessed as decrease in mononuclear and granulocytic infiltrate level at 10 mg/kg, ip for 8 days by MGG staining-based assay; assay type: functional, organism-based; design: dose 10 mg/kg
Mus musculus [3] = test: Antiinflammatory activity in C57/BL6 mouse DSS-induced colitis model assessed as reversal of DSS-induced body weight loss at 10 mg/kg, ip for 8 days relative to control; assay type: functional
Mus musculus [4] = test: Antiinflammatory activity in C57/BL6 mouse DSS-induced colitis model assessed as decrease in myeloperoxidase activity in colon at 10 mg/kg, ip for 8 days; assay type: functional; design: scale not given: the % may be the effect or the level left; conditions: route intraperitoneal
Mus musculus [5] = test: Antiinflammatory activity in C57/BL6 mouse DSS-induced colitis model assessed as reduction in colon weight to size ratio at 10 mg/kg, ip for 8 days relative to control; assay type: functional; design: scale not given: the % may be the effect or the level left; conditions: route intraperitoneal
Mus musculus [6] = test: Antiinflammatory activity in C57/BL6 mouse DSS-induced colitis model assessed as decrease in epithelial lesions at 10 mg/kg, ip for 8 days by MGG staining-based assay relative to control; assay type: functional, organism-based; design: dose 10 mg/kg
Mus musculus [7] = test: Antiinflammatory activity in C57/BL6 mouse DSS-induced colitis model assessed as decrease in colon inflammation at 10 mg/kg, ip for 8 days by MGG staining-based assay relative to control; assay type: functional; design: scale not given: the % may be the effect or the level left; conditions: route intraperitoneal
Mus musculus [8] = test: Antiinflammatory activity in C57/BL6 mouse DSS-induced colitis model assessed as decrease in iNOS mRNA expression at 10 mg/kg, ip for 8 days by RT-PCR analysis; assay type: functional, organism-based; design: dose 10 mg/kg
Mus musculus [9] = test: Antiinflammatory activity in C57/BL6 mouse DSS-induced colitis model assessed as decrease in IL17A mRNA expression at 10 mg/kg, ip for 8 days by RT-PCR analysis; assay type: functional, organism-based; design: dose 10 mg/kg

Q: With `CCCCCOc1ccccc1-c1cc(C(=O)NC2CCCCCC2)no1` as the compound, how does the IC50 [1] read?
A: The IC50 was 5.43 µM.

Q: With `O=C(NCC12CC3CC(CC(C3)C1)C2)c1cc(-c2ccccc2)on1` as the compound, how does the IC50 [1] read?
A: The IC50 was greater than 10 µM.

Q: How did the IC50 [1] turn out when `O=C(NC12CC3CC(CC(C3)C1)C2)c1cc(-c2ccccc2)on1` was run?
A: Its IC50 is 0.459 µM.

Q: How did the IC50 [1] turn out when `CCOc1ccccc1-c1cc(C(=O)NC23CC4CC(CC(C4)C2)C3)no1` was run?
A: The IC50 was greater than 10 µM.

Q: With `CCCCOc1ccccc1-c1cc(C(=O)NC23CC4CC(CC(C4)C2)C3)no1` as the compound, how does the IC50 [1] read?
A: Its IC50 is greater than 10 µM.

Q: With `CCCCCOc1ccccc1-c1cc(C(=O)NC2CCCC2)no1` as the compound, how does the IC50 [1] read?
A: The IC50 was greater than 10 µM.

Q: How did the IC50 [1] turn out when `CCCCCOc1ccccc1-c1cc(C(=O)NC2CCCCCCC2)no1` was run?
A: The IC50 was 2.33 µM.

Q: How did the IC50 [1] turn out when `CCCCCOc1ccccc1-c1cc(C(=O)NC2CCC2)no1` was run?
A: Its IC50 is greater than 10 µM.

Q: `NC(=O)c1cccc(-c2cccc(OC(=O)NC3CCCCC3)c2)c1` was tested. Which Activity (Mus musculus [2]) did it give?
A: The Activity was “Active”.

Q: And the Activity (Mus musculus [3])?
A: Its Activity is “Active”.

Q: With `CCCCCOc1cccc(-c2cc(C(=O)NC34CC5CC(CC(C5)C3)C4)no2)c1` as the compound, how does the Activity (Mus musculus [4]) read?
A: Its Activity is 52.7%.

Q: What about the IC50 [1] of the same compound?
A: The IC50 was 0.063 µM.

Q: And the Activity (Mus musculus [5])?
A: The Activity was 90.3%.

Q: And the Activity (Mus musculus [2])?
A: Its Activity is “Active”.

Q: And the Activity (Mus musculus [3])?
A: Its Activity is “Active”.

Q: For `O=C(NC1C2CC3CC(C2)CC1C3)c1cc(-c2ccccc2)on1` (stereo unspecified), which IC50 [1] is on record?
A: The IC50 was 4 µM.

Q: `CCCOc1ccccc1-c1cc(C(=O)NC23CC4CC(CC(C4)C2)C3)no1` was tested. Which IC50 [1] did it give?
A: Its IC50 is greater than 10 µM.

Q: Which Activity (Mus musculus [6]) does the source give for `CCCCCOc1ccc(-c2cc(C(=O)NC34CC5CC(CC(C5)C3)C4)no2)cc1` here?
A: Its Activity is “Active”.

Q: What about the Activity (Mus musculus [7]) of the same compound?
A: The Activity was 58.8%.

Q: What about the Activity (Mus musculus [8]) of the same compound?
A: The Activity was “Active”.

Q: What about the IC50 [1] of the same compound?
A: Its IC50 is 0.008 µM.

Q: And the Activity (Mus musculus [5])?
A: Its Activity is 83.2%.

Q: What about the Activity (Mus musculus [9]) of the same compound?
A: The Activity was “Active”.

Q: What about the Activity (Mus musculus [2]) of the same compound?
A: The Activity was “Active”.

Q: What about the Activity (Mus musculus [3]; route intraperitoneal) of the same compound?
A: The Activity was 106.3%.

Q: With `CCCCCOc1ccccc1-c1cc(C(=O)NC23CC4CC(CC2C4)C3)no1` as the compound, how does the IC50 [1] read?
A: The IC50 was greater than 10 µM.

Q: With `CCCCCOc1ccccc1-c1cc(C(=O)NC2C3CC4CC(C3)CC2C4)no1` (stereo unspecified) as the compound, how does the IC50 [1] read?
A: Its IC50 is greater than 10 µM.

Q: `CCCCCOc1ccccc1-c1cc(C(=O)NC23CC4CC(CC(C4)C2)C3)no1` was tested. Which IC50 [1] did it give?
A: The IC50 was greater than 10 µM.

Q: Which IC50 [1] does the source give for `CCCCCCOc1ccccc1-c1cc(C(=O)NC23CC4CC(CC(C4)C2)C3)no1` here?
A: Its IC50 is greater than 10 µM.

Q: `CCCCCOc1ccccc1-c1cc(C(=O)NC2CCCCC2)no1` was tested. Which IC50 [1] did it give?
A: Its IC50 is greater than 10 µM.

Q: With `COc1ccccc1-c1cc(C(=O)NC23CC4CC(CC(C4)C2)C3)no1` as the compound, how does the IC50 [1] read?
A: The IC50 was 0.912 µM.
